Test results: US9161502B2, “Brassica juncea lines with a canola fatty acid profile” (PIONEER HI BRED INTERNATIONAL INC, priority 2007, dated 2015)

System: B. juncea seed
Experiment: EMS kill curves: germination of B. juncea seed treated with various concentrations of EMS
Format: in vivo, Brassica juncea
Conditions: for % germination: seeds soaked 18 hours, germination box 25° C., 7 days
Protocol: A bulk population (99SJ-1309) was created for this experiment from 8 different low glucosinolate and low erucic acid B. juncea breeding lines. These lines were selected for a range of quality and agronomic traits such as oil content and seed size. 500 seeds of the bulk population were used for each treatment of the following experiment. The seeds were soaked in various concentrations EMS for 18 hours and then washed 3 times. A sub-sample of 100 seeds was placed in a germination box at 25° C. for 7 days. After 7 days, the number of seeds that germinated and produced a healthy radicle was calculated. All seeds that were treated with EMS took at least 2 days longer to germinate than controls.
EMS treatment of seed affected the germination rate (FIG. 1, Table 2 and Table 3). […] This experiment was not replicated. Its purpose was to evaluate the effect of EMS on seed germination rate. The first experiment was designed to test a broad range of EMS application rates and the second experiment was to reduce the range of EMS treatment to develop the desirable mutations (Table 3).

Compound: CCOS(C)(=O)=O [EMS, ethyl methane sulfonate]
- germination rate versus expectation (0.36% EMS treatment rate): much lower germination rate than expected
- germination rate (0.48% EMS, text summary of Experiment 1): approximately 50%
- delay of germination versus controls (all seeds treated with EMS): at least 2 days
- germination rates (highest concentrations of EMS): less than 50%
- % germination (kill curve #1 (Treatment 1), EMS 0.16% w/v): 93%
- % germination (kill curve #1 (Treatment 1), EMS 0.33% w/v): 90%
- % germination (kill curve #1 (Treatment 1), EMS 0.48% w/v): 61%
- % germination (kill curve #1 (Treatment 1), EMS 0.64% w/v): 39%
- % germination (kill curve #2 (Treatment 2), EMS 0.36% w/v): 57%
- % germination (kill curve #2 (Treatment 2), EMS 0.42% w/v): 68%
- % germination (kill curve #2 (Treatment 2), EMS 0.48% w/v): 43%
- % germination (kill curve #2 (Treatment 2), EMS 0.56% w/v): 46%
- effect on germination rate (lowest concentrations (0.16 and 0.33%)): little effect on germination rate
